Common to all, as to test: NCI-60 cell line screen, 48 h
For assay [1], the system named is A549 NSCLC.
The subject of assay [2] is CCRF-CEM leukemia.
Assay [3] has as its system HOP-62 NSCLC.
Assay [4] concerns K-562 leukemia.
For assay [5], the system named is OVCAR-3 ovarian.
The test system of assay [6] is SF-539 CNS.
In assay [7] the test system is SK-OV-3 ovarian.
For assay [8], the system named is SW-620 colon.
In assay [9] the test system is TK-10 renal.
The subject of assay [10] is UACC-62 melanoma.

SMILES strings stand for the structures.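 These data come from cells grown in 96-well plates and exposed to compound for 48 hours at five concentrations. At the GI50, growth is halved. At the TGI there is no net growth.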

In the case of `COc1ccc(-c2nnc(COc3ccc(NC(=O)Nc4ccc(Cl)c(C(F)(F)F)c4)cc3F)o2)cc1`, the GI50 in [1] was 3.25 µM; in [2], 3.06 µM; in assay [3], 5.07 µM; in assay [4], 3.31 µM; in [5] it was 3.02 µM; in assay [6], 5.01 µM. For the same compound, the GI50 is 5.86 µM in [7], 3.42 µM in [8], 9.09 µM in assay [9] and 3.12 µM in assay [10]. In addition, the TGI turned out to be 18.7 µM in assay [1]; 40 µM in assay [2]; 21.8 µM in assay [3]; 53.9 µM in [4]; 10.5 µM in assay [5]; 19.6 µM in assay [6]. In addition, the TGI in [7] was 31.5 µM; in assay [8], 27.2 µM; in [9], 41.4 µM; in assay [10], 16.4 µM.

For the compound `COc1cc2c(c(OC)c1OC)-c1c(cc3c(c1OC)OCO3)C1OC2C(C)C1C` (stereo not drawn) (tested in a mixture with another compound), the TGI in assay [1], in assay [2], in assay [3], in [4], in assay [5] and in assay [6] was more than 100 µM in each case. Besides, the TGI in assay [7], in assay [8], in assay [9] and in assay [10] was more than 100 µM each time.

In the case of `CS(=O)(=O)c1cc(=O)c2ccccc2s1`, the TGI was 35.7 µM in assay [1]; 3.93 µM in assay [2]; 41.3 µM in assay [3]; 3 µM in assay [4]; 5.27 µM in [5]; 27.6 µM in assay [6]. Besides, the TGI in assay [7] turned out to be 32.3 µM; in assay [8], 3.4 µM; in assay [9], 13.7 µM; in assay [10] it was 27.3 µM.

On to `COc1ccc(OC)c(C(=O)c2oc3ccc(Br)cc3c2N)c1`, for which the GI50 in assay [1] is 0.493 µM; in assay [2], 0.332 µM; in assay [3], 0.49 µM; in assay [4], 0.082 µM; in assay [5] it was 0.347 µM; in assay [6], 0.237 µM. Moreover, the GI50 in [7] is 0.515 µM; in [8], 0.332 µM; in assay [9], 1.74 µM; in assay [10], 0.432 µM. The TGI in assay [1] is more than 54.6 µM; in assay [2], 24.1 µM; in assay [3], more than 50.6 µM; in [4] it was 35.2 µM; in [5], 3.28 µM; in assay [6], 0.712 µM. Moreover, the TGI is 7.07 µM in assay [7], more than 66.8 µM in assay [8], 87.7 µM in [9] and 14.3 µM in [10].

Consider `COc1cc(NS(=O)(=O)c2ccc(-c3cnc(C4CC4)o3)cc2)ccc1F`, for which the GI50 is 0.826 µM in assay [1]; 0.326 µM in assay [2]; 0.646 µM in assay [3]; 0.082 µM in assay [4]; 0.437 µM in [5]; 0.274 µM in [6]. For the same compound, the GI50 in assay [7] is 0.606 µM; in [8] it was 0.287 µM; in [9] it was 7.88 µM; in assay [10], 0.313 µM. Further, the TGI is more than 45.8 µM in [1]; more than 100 µM in [2]; 18.8 µM in assay [3]; more than 100 µM in assay [4]; 16 µM in [5]; 2.18 µM in [6]. The TGI in assay [7] was 34.6 µM; in [8] it was more than 61.3 µM; in [9] it was 53.9 µM; in [10], 13.8 µM.

For `COc1ccccc1Cn1cc2c(c1-c1ccccc1)CCc1cnoc1-2`, the GI50 in assay [1] was 4.31 µM; in assay [2] it was 2.85 µM; in assay [3], 3.73 µM; in assay [4] it was 0.539 µM; in assay [5], 1.23 µM; in assay [6] it was 2.57 µM. The GI50 in assay [7] is 3.5 µM; in [8] it was 1.83 µM; in [9], 4.32 µM; in [10], 2.34 µM. In addition, the TGI was more than 100 µM in assay [1]; more than 100 µM in [2]; more than 100 µM in assay [3]; more than 100 µM in assay [4]; 4.32 µM in assay [5]; more than 100 µM in [7]. Further, the TGI in [8], in assay [9] and in [10] was more than 100 µM each time.

With `COc1cc2c3c(n(C)c(=O)c2cc1OC)-c1cc2c(cc1/C3=C\CNCCCN)OCO2`, the GI50 in [1] is 1.43 µM; in assay [2] it was 0.0239 µM; in [3], 0.625 µM; in assay [4], 0.168 µM; in assay [5] it was 1.37 µM; in [6] it was 0.834 µM. Further, the GI50 was 1.26 µM in assay [7], 0.222 µM in assay [8], 0.981 µM in [9] and 0.214 µM in assay [10]. The TGI was more than 25.1 µM in assay [1]; 0.15 µM in assay [2]; 10.9 µM in assay [3]; 7.66 µM in assay [5]; 7.29 µM in assay [6]; more than 88.2 µM in assay [7]. Further, the TGI is 3.94 µM in [8], 7.47 µM in [9] and 1.12 µM in assay [10].

In the case of `CCC(=O)c1c(C(F)(F)F)n([O-])c2ccc(C)cc2[n+]1=O`, the GI50 in assay [1] was 11.3 µM; in assay [2], 18.2 µM; in [3] it was 11.3 µM; in assay [4] it was 3.4 µM; in assay [5] it was 3.88 µM; in assay [6], 9.19 µM. The GI50 in [7] is 8.45 µM; in assay [8] it was 11.7 µM; in assay [9] it was 0.812 µM; in assay [10], 7.7 µM. Also, the TGI is more than 50 µM in [1]; more than 50 µM in [2]; more than 50 µM in assay [3]; more than 50 µM in assay [4]; 15 µM in assay [5]; 25.3 µM in [6]. For the same compound, the TGI in assay [7] is 49.3 µM; in assay [8], more than 50 µM; in assay [9] it was 6.61 µM; in [10] it was 28.9 µM.

These data come from PubChem BioAssay (NCI).
